Tests used:
[1] = molecular target: T1, Prostaglandin G/H synthase 1 (Ovis aries) (UniProt P05979); test: Inhibition of ovine COX1 at 10 uM by enzyme immunoassay relative to control
T1 sequence (whole entry): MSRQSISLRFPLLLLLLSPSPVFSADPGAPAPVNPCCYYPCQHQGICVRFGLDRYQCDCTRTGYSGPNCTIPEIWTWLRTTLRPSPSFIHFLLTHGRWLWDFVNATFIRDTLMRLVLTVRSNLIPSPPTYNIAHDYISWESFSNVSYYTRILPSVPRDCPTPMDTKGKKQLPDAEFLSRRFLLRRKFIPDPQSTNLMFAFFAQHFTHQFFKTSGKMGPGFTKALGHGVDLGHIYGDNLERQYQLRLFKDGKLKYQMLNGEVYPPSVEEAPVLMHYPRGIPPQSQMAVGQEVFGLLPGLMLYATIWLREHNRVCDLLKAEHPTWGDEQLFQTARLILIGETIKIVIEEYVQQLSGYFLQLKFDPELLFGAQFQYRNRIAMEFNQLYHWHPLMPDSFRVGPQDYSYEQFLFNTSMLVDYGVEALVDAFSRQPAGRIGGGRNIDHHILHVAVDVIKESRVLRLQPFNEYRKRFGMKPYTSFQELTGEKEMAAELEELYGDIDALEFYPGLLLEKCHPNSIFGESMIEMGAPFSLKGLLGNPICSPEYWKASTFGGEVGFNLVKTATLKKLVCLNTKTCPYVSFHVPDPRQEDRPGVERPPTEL

[2] = molecular target: T1, Prostaglandin G/H synthase 1 (Ovis aries); test: Inhibition of ovine COX1 at 100 uM by enzyme immunoassay relative to control
[3] = molecular target: T2, Prostaglandin G/H synthase 1 (Ovis aries, UniProt P05979); test: Inhibition of ovine COX1 by enzyme immunoassay
T2 sequence (P05979 whole entry): T1 sequence (whole entry)

Ovis aries = species: Ovis aries; test: Selectivity index, raio of IC50 for ovine COX1 to IC50 for ovine COX2
[4] = molecular target: T3, Prostaglandin G/H synthase 2 (Homo sapiens) (UniProt P35354); test: Inhibition of COX2 in LPS-stimulated human whole blood assessed as PGE2 production by enzyme immunoassay; assay type: tissue-based; conditions: concentration not given here
T3 sequence (whole entry): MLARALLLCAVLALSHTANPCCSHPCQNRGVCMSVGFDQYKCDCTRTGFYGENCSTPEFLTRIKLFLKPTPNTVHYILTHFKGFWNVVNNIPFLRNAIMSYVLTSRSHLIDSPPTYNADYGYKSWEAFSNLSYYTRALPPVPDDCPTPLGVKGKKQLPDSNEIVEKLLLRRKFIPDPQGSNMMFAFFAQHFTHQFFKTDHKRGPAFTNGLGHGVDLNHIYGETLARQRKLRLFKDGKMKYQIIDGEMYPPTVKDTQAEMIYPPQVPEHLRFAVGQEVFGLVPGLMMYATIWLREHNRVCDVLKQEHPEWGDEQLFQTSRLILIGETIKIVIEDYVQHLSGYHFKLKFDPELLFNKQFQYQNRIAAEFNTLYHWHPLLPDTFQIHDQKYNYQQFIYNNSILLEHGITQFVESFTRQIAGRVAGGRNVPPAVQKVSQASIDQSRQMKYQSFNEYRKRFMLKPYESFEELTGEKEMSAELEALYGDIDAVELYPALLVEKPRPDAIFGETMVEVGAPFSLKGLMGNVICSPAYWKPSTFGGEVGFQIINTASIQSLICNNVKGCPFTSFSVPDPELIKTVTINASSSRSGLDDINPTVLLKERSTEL

[5] = molecular target: Prostaglandin G/H synthase 1 (Homo sapiens) (UniProt P23219); test: Inhibition of COX1 in human whole blood assessed as TXB2 production at 10 uM by enzyme immunoassay
Prostaglandin G/H synthase 1 (Homo sapiens), sequence (P23219 whole entry): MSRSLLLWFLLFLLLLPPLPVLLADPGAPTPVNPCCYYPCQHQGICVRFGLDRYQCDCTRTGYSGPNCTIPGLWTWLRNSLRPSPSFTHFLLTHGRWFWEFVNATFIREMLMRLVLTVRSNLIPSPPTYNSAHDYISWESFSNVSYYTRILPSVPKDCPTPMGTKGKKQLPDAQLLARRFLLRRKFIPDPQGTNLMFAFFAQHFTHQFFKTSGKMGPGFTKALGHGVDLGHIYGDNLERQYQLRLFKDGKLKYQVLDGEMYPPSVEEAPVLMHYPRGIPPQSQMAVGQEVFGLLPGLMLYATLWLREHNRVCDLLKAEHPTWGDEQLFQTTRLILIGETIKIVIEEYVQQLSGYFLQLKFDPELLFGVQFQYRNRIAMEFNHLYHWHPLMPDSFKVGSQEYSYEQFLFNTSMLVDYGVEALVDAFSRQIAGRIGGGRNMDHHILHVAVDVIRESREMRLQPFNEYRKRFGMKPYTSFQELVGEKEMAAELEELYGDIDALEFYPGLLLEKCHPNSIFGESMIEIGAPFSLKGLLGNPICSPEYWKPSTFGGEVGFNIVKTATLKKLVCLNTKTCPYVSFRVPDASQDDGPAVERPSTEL

Row | inhibition [1] [%] | inhibition [2] [%] | IC50 [3] [µM] | Ratio IC50 (Ovis aries) | inhibition [4] [%] | inhibition [5] [%] | Compound
1 | 71.9 | – | – | – | – | – | COc1ccc2c(c1)c(CC(=O)O)c(C)n2C(=O)c1ccc(Cl)cc1
2 | 3.56 | 19.3 | > 100 | > 50 | 85 | 7 | Cn1c(-c2ccccc2)c(-c2ccc(S(N)(=O)=O)cc2)oc1=O
